Data taken from paper PMC9428674 (RSC Chemical Biology, 2022).

Experiments:
NTAQ1 = assay: Western blot verification of NTAQ1 degradation; settings: 100 nM MLN4924 pre-treatment for 2 hours
[1] = cited from earlier work

SMILES: NS(=O)(=O)OC[C@@H]1C[C@@H](n2ccc3c(N[C@H]4CCc5ccccc54)ncnc32)C[C@@H]1O [MLN4924]
- effect of pre-treatment on NTAQ1 downregulation by EM12-FS (NTAQ1): rescued downregulation of NTAQ1 by EM12-FS

SMILES: Nc1cccc2c1CN(C1CCC(=O)NC1=O)C2=O (stereo not shown) [lenalidomide]
- human plasma half-life [1]: 4.73 h

SMILES: Nc1cccc2c1C(=O)N(C1CCC(=O)NC1=O)C2=O (stereo not shown) [pomalidomide]
- human plasma half-life [1]: 2.65 h

SMILES: O=C1CCC(N2C(=O)c3ccccc3C2=O)C(=O)N1 (stereo not shown) [thalidomide]
- human plasma half-life [1]: 0.367 h
